From publication PMC6979384, “Characterization of the plant homeodomain (PHD) reader family for their histone tail interactions” (Epigenetics & Chromatin, 2020)

How the values were obtained:
Experiment in all cases: Histone peptide microarray
Type in all cases: binding, human
Settings in all cases: sheet "Array Heatmap"; GST-tagged reader; histone peptide array, total n = 4
AIRE (PP) = system: AIRE (PP)
How it was run: (§1)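 Purified PHD finger domains fused to GST are screened against 293 synthetic histone peptides bearing one or several post-translational modifications. The protein is used at 0.5 μM, and the signal from four replicate arrays is averaged, with standard deviation given.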

BAZ2B = system: BAZ2B
How it was run: as §1

BPTF (PB) = system: BPTF (PB)
How it was run: as §1

CHD4 (PPCC) = system: CHD4 (PPCC)
How it was run: as §1

CHD5 (PCC) = system: CHD5 (PCC)
How it was run: as §1

CHD5 (PPCC) = system: CHD5 (PPCC)
How it was run: as §1

DIDO1 = system: DIDO1
How it was run: as §1

DPF2 (PPC2W2) = system: DPF2 (PPC2W2)
How it was run: as §1

ING1 = system: ING1
How it was run: as §1

ING2 = system: ING2
How it was run: as §1

ING3 = system: ING3
How it was run: as §1

ING4 = system: ING4
How it was run: as §1

ING5 = system: ING5
How it was run: as §1

KDM4C (TTP) = system: KDM4C (TTP)
How it was run: as §1

KDM5A (1) = system: KDM5A (1)
How it was run: as §1

KDM5A (3) = system: KDM5A (3)
How it was run: as §1

KDM5B (1) = system: KDM5B (1)
How it was run: as §1

KDM5B (3) = system: KDM5B (3)
How it was run: as §1

KDM7A = system: KDM7A
How it was run: as §1

MLL5 = system: MLL5
How it was run: as §1

MORC3 (CW) = system: MORC3 (CW)
How it was run: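 Steps: express and purify GST-tagged PHD reader; incubate 0.5 μM protein on a peptide microarray (293 histone peptides, single or combined PTMs) following an optimized protocol; average signal across 4 replicates.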

PHF13 = system: PHF13
How it was run: as §1

PHF21A = system: PHF21A
How it was run: as §1

PHF23 = system: PHF23
How it was run: as §1

PHF2 = system: PHF2
How it was run: as §1

PHF8 = system: PHF8
How it was run: as §1

PHRF1 (RP) = system: PHRF1 (RP)
How it was run: as §1

RAG2 = system: RAG2
How it was run: as §1

SP140L = system: SP140L
How it was run: as §1

TAF3 = system: TAF3
How it was run: as §1

TRIM66 (PB) = system: TRIM66 (PB)
How it was run: as §1

Substance	Array Heatmap signal, AIRE (PP) (AIRE (PP))	Array Heatmap signal, BAZ2B (BAZ2B)	Array Heatmap signal, BPTF (PB) (BPTF (PB))	Array Heatmap signal, CHD4 (PPCC) (CHD4 (PPCC))	Array Heatmap signal, CHD5 (PCC) (CHD5 (PCC))	Array Heatmap signal, CHD5 (PPCC) (CHD5 (PPCC))	Array Heatmap signal, DIDO1 (DIDO1)	Array Heatmap signal, DPF2 (PPC2W2) (DPF2 (PPC2W2))	Array Heatmap signal, ING1 (ING1)	Array Heatmap signal, ING2 (ING2)	Array Heatmap signal, ING3 (ING3)	Array Heatmap signal, ING4 (ING4)	Array Heatmap signal, ING5 (ING5)	Array Heatmap signal, KDM4C (TTP) (KDM4C (TTP))	Array Heatmap signal, KDM5A (1) (KDM5A (1))	Array Heatmap signal, KDM5A (3) (KDM5A (3))	Array Heatmap signal, KDM5B (1) (KDM5B (1))	Array Heatmap signal, KDM5B (3) (KDM5B (3))	Array Heatmap signal, KDM7A (KDM7A)	Array Heatmap signal, MLL5 (MLL5)	further results
H3R2me2s + K4me3 + K9ac + K14ac + K18ac: H3 1-20	0.3152	0.3825	0.2994	0.4966	0.6375	0.4157	0.6935	0.5621	0.5042	0.6168	0.3864	0.356	0.2654	0.3487	0.3527	0.5269	0.5889	0.4309	0.2957	0.5797	Array Heatmap signal, MORC3 (CW) (MORC3 (CW)): 0.4658; Array Heatmap signal, PHF13 (PHF13): 0.4921; Array Heatmap signal, PHF21A (PHF21A): 0.377; Array Heatmap signal, PHF23 (PHF23): 0.5367; Array Heatmap signal, PHF2 (PHF2): 0.5721; Array Heatmap signal, PHF8 (PHF8): 0.402; Array Heatmap signal, PHRF1 (RP) (PHRF1 (RP)): 0.3639; Array Heatmap signal, RAG2 (RAG2): 0.309; Array Heatmap signal, SP140L (SP140L): 0.3075; Array Heatmap signal, TAF3 (TAF3): 0.2641; Array Heatmap signal, TRIM66 (PB) (TRIM66 (PB)): 0.4734
H3R8me1 + K9me2: H3 1-20	0.4949	0.525	0.4109	0.7009	0.7992	0.658	0.8013	0.8023	0.6213	0.6201	0.5783	0.5352	0.4288	0.5659	0.5283	0.6031	0.696	0.5247	0.3959	0.5733	Array Heatmap signal, MORC3 (CW) (MORC3 (CW)): 0.4736; Array Heatmap signal, PHF13 (PHF13): 0.7136; Array Heatmap signal, PHF21A (PHF21A): 0.4957; Array Heatmap signal, PHF23 (PHF23): 0.6046; Array Heatmap signal, PHF2 (PHF2): 0.6657; Array Heatmap signal, PHF8 (PHF8): 0.3836; Array Heatmap signal, PHRF1 (RP) (PHRF1 (RP)): 0.6787; Array Heatmap signal, RAG2 (RAG2): 0.302; Array Heatmap signal, SP140L (SP140L): 0.3989; Array Heatmap signal, TAF3 (TAF3): 0.3249; Array Heatmap signal, TRIM66 (PB) (TRIM66 (PB)): 0.6813
H3R8me1: H3 1-20 [Peptide H3R8me1]	0.5084	0.4447	0.34	0.56	0.7411	0.5449	0.6306	0.6736	0.4918	0.6007	0.4554	0.4481	0.3558	0.4945	0.4661	0.5111	0.6779	0.4843	0.3359	0.5181	Array Heatmap signal, MORC3 (CW) (MORC3 (CW)): 0.4492; Array Heatmap signal, PHF13 (PHF13): 0.597; Array Heatmap signal, PHF21A (PHF21A): 0.4425; Array Heatmap signal, PHF23 (PHF23): 0.5397; Array Heatmap signal, PHF2 (PHF2): 0.4833; Array Heatmap signal, PHF8 (PHF8): 0.3354; Array Heatmap signal, PHRF1 (RP) (PHRF1 (RP)): 0.6379; Array Heatmap signal, RAG2 (RAG2): 0.2447; Array Heatmap signal, SP140L (SP140L): 0.3587; Array Heatmap signal, TAF3 (TAF3): 0.2594; Array Heatmap signal, TRIM66 (PB) (TRIM66 (PB)): 0.5513
